Test results reported in US9701670B2, “Pyrazolyl-ureas as kinase inhibitors” (RESPIVERT LIMITED, priority 2013, dated 2017).

Columns and labels:
[1] = Pharmacokinetics, plasma and total colon tissue distribution in rats; assay type: in vivo, male Wistar rats; conditions: Rat
Experimental: A study was conducted by Sai Life Sciences (Hinjewadi, Pune, India) to investigate the pharmacokinetics, as well as plasma and total colon tissue distribution of the compound of Example 77 in male Wistar rats following a single intravenous or oral administration.
30 male Wistar rats were divided into two groups: Group I (p.o.: 5 mg/kg; 27 rats) and Group II (i.v.: 0.25 mg/kg; 3 rats). Animals in Group I were administered orally with an aqueous suspension formulation (having 2% HPMC and 0.5% Tween 80) of the compound of Example 77, at a dose of 5 mg/kg. Animals in Group II were administered intravenously with a solution formulation (in 5% v/v DMSO, 7.5% w/v Solutol HS 15 and 87.5% saline (0.9% w/v NaCl)) of the compound of Example 77 at a dose of 0.25 mg/kg. From each rat, blood samples (approximately 120 μL) were collected from retro orbital plexus such that samples were obtained at pre-dose, 0.05, 0.13, 0.25, 0.5, 1, 2, 4, 8, and 24 hr (i.v.) and pre-dose, 0.5, 1, 2, 4, 6, 8, 12 and 24 hr (p.o.). Immediately after collection, plasma was harvested from blood by centrifugation and stored at −70° C. until analysis. Following collection of blood sample, the animals (Group I) were humanely euthanized by carbon dioxide asphyxiation. The total colon was isolated, flushed with cold phosphate buffer saline (pH 7.4) to remove contents and weighed. The total colon tissues homogenized with ice-cold phosphate buffered saline, pH 7.4. Buffer volume to be used for homogenization was twice the weight of tissue. All the samples were stored below −70° C. until bioanalysis. Total colon tissue homogenate volume was three times. Plasma and total colon tissue samples were quantified by LC-MS/MS method (LLOQ in plasma and total colon tissue=0.5 ng/mL)

[2] = Pharmacokinetics and total colon tissue distribution in mice; assay type: in vivo, male C57BL/6 mice; conditions: male, Mouse, 5 mg/kg p.o.
Experimental: Studies were conducted by Sai Life Sciences (Hinjewadi, Pune, India) to investigate the pharmacokinetics and total colon tissue distribution of the compound of Example 77 in male C57BL/6 mice following a single oral administration.
A group of twenty one male mice were dosed with a suspension formulation (in peanut oil) of the compound of Example 77, at a dose of 5 mg/kg. Blood samples (approximately 60 μL) were collected from retro orbital plexus such that the samples were obtained at 1, 2, 4, 6, 8, 12 and 24 hr. The blood samples were collected from a set of three mice at each time point in labelled micro centrifuge tube containing K2EDTA as anticoagulant. Plasma samples were separated by centrifugation at 4000 rpm for 10 min of whole blood and stored below −70° C. until bioanalysis. After collection of blood sample, animals were humanely euthanized by carbon dioxide asphyxiation to collect total colon tissues. The colons were flushed with cold phosphate buffer saline (pH 7.4) to remove contents. The total colon tissues were homogenized with cold phosphate buffer saline (pH 7.4) of twice the weight of colon tissue and stored below −70° C. Total volume was three times the total colon tissue weights. All samples were processed for analysis by protein precipitation using acetonitrile and analyzed with developed LC-MS/MS method (LLOQ: 2.02 ng/mL in plasma and 1.01 ng/mL in colon tissue). Pharmacokinetic parameters were calculated using the non-compartmental analysis tool of Phoenix WinNonlin® software (version 6.3).

[3] = test system: β-catenin in d-U937 cells; assay: (m) Accumulation of β catenin in d-U937 cells; assay type: cell-based, human
How it was run: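 PMA-differentiated U937 macrophage-type cells (100 ng/mL, 48–72 hr) were exposed to test compound or vehicle for 18 hr, then fixed. β-catenin was measured by cell ELISA (HRP/TMB, OD450-655) and normalised to crystal violet OD595. Signals below 15% of the standard control were designated "-ve".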

[4] = male, Wistar, plasma, intravenous 0.25 mg/kg
[5] = male, Wistar, po, 5 mg/kg p.o., Plasma
[6] = male, Wistar, total colon tissue, po, 5 mg/kg p.o., Total colon
[7] = C57BL/6, total colon tissue, po, Total colon

Molecule `C#Cc1cc(Nc2nccc(Oc3ccc(NC(=O)Nc4cc(C(C)(C)C)nn4-c4ccc(OC)cc4)c4ccccc34)n2)cc(C(=O)NCCN2CCOCC2)c1` [Example 77, 3-((4-((4-(3-(3-(tert-Butyl)-1-(4-methoxyphenyl)-1H-pyrazol-5-yl)ureido)-naphthalen-1-yl)oxy)pyrimidin-2-yl)amino)-5-ethynyl-N-(2-morpholinoethyl)benzamide] has a Fpo ([1]; 5 mg/kg p.o., Plasma) of 0.1%, an AUC(0-inf) [1, 4] of 1190 ng·h/mL and an AUC(0-t) [1, 4] of 1180 ng·h/mL. The C0 [1, 4] was 4030 ng/mL, the Vd [1, 4] was 0.1 L/kg and the clearance [1, 4] was 3.5 mL/min/kg. The half-life [1, 4] was 0.8 h, the AUC(0-inf) [1, 5] was 17.5 ng·h/mL and the AUC(0-t) [1, 5] was 17.5 ng·h/mL. For the same molecule, the Cmax [1, 5] was 2.5 ng/mL, the Tmax [1, 5] was 6 h and the AUC(0-inf) [1, 6] was 20700 ng·h/mL. The AUC(0-t) [1, 6] was 20500 ng·h/mL, the Cmax [1, 6] was 2500 ng/mL and the Tmax [1, 6] was 4 h. The AUC(0-inf) ([2]; C57BL/6, po, Plasma) was 29 ng·h/mL, the AUC(0-t) ([2]; C57BL/6, po, Plasma) was 22 ng·h/mL and the Cmax ([2]; C57BL/6, po, Plasma) was 3.5 ng/mL. The Tmax ([2]; C57BL/6, po, Plasma) was 1 h, the AUC(0-inf) [2, 7] was 9280 ng·h/mL and the AUC(0-t) [2, 7] was 7480 ng·h/mL. The Cmax [2, 7] was 1070 ng/mL, the Tmax [2, 7] was 4 h and the “% β-catenin induction” value ([3]; 1 μg/mL test compound) was 1%. The “% β-catenin induction” value ([3]; 5 μg/mL test compound) was 0% and the “% β-catenin induction” value ([3]; 10 μg/mL test compound) was −8%.
